# Measurements: ChEMBL document CHEMBL4261496, “Targeting quinolone- and aminocoumarin-resistant bacteria with new gyramide analogs that inhibit DNA gyrase” (Medchemcomm, 2017)
# Active and inactive are the calls of the source. No cut-off for these calls is given here.
# Legend:
# Escherichia coli [1] = assay: Antibacterial activity against Escherichia coli BW25113 after 16 to 18 hrs by broth microdilution method; assay type: functional
# Escherichia coli [2] = assay: Antibacterial activity against Escherichia coli JW5503 after 16 to 18 hrs by broth microdilution method; assay type: functional
# Escherichia coli [3] = assay: Antibacterial activity against Escherichia coli MC4100 after 16 to 18 hrs by broth microdilution method; assay type: functional
# Escherichia coli [4] = assay: Antibacterial activity against Escherichia coli BAS849 after 16 to 18 hrs by broth microdilution method; assay type: functional
# Escherichia coli [5] = assay: Antibacterial activity against Escherichia coli UPEC after 16 to 18 hrs by broth microdilution method; assay type: functional
# Acinetobacter baumannii = assay: Antibacterial activity against Acinetobacter baumannii clinical isolate after 16 to 18 hrs by broth microdilution method; assay type: functional
# Edwardsiella tarda = assay: Antibacterial activity against Edwardsiella tarda clinical isolate after 16 to 18 hrs by broth microdilution method; assay type: functional
# Klebsiella aerogenes = assay: Antibacterial activity against Enterobacter aerogenes clinical isolate after 16 to 18 hrs by broth microdilution method; assay type: functional
# Klebsiella pneumoniae = assay: Antibacterial activity against Klebsiella pneumoniae after 16 to 18 hrs by broth microdilution method; assay type: functional
# Morganella morganii = assay: Antibacterial activity against Morganella morganii clinical isolate after 16 to 18 hrs by broth microdilution method; assay type: functional
# Pseudomonas aeruginosa = assay: Antibacterial activity against Pseudomonas aeruginosa after 16 to 18 hrs by broth microdilution method; assay type: functional
# Salmonella typhimurium = assay: Antibacterial activity against Salmonella enterica subsp. enterica serovar Typhimurium after 16 to 18 hrs by broth microdilution method; assay type: functional
# Shigella flexneri = assay: Antibacterial activity against Shigella flexneri after 16 to 18 hrs by broth microdilution method; assay type: functional
# Bacillus subtilis = assay: Antibacterial activity against Bacillus subtilis after 16 to 18 hrs by broth microdilution method; assay type: functional
# Bacillus cereus = assay: Antibacterial activity against Bacillus cereus after 16 to 18 hrs by broth microdilution method; assay type: functional
# Enterococcus faecalis = assay: Antibacterial activity against Enterococcus faecalis after 16 to 18 hrs by broth microdilution method; assay type: functional
# Enterococcus faecium = assay: Antibacterial activity against Enterococcus faecium after 16 to 18 hrs by broth microdilution method; assay type: functional
# Staphylococcus aureus = assay: Antibacterial activity against Staphylococcus aureus subsp. aureus clinical isolate after 16 to 18 hrs by broth microdilution method; assay type: functional
# [6] = system: Staphylococcus saprophyticus; assay: Antibacterial activity against Staphylococcus saprophyticus clinical isolate after 16 to 18 hrs by broth microdilution method; assay type: functional
# [7] = system: Staphylococcus epidermidis; assay: Antibacterial activity against Staphylococcus epidermidis clinical isolate after 16 to 18 hrs by broth microdilution method; assay type: functional
# Streptococcus agalactiae = assay: Antibacterial activity against Streptococcus agalactiae after 16 to 18 hrs by broth microdilution method; assay type: functional
# Streptococcus pyogenes = assay: Antibacterial activity against Streptococcus pyogenes after 16 to 18 hrs by broth microdilution method; assay type: functional
# Escherichia coli [8] = assay: Antibacterial activity against gyramide-resistant Escherichia coli JW5503 harboring GyrA Pro35Thr mutant after 16 to 18 hrs by broth microdilution method; assay type: functional
# Escherichia coli [9] = assay: Antibacterial activity against gyramide-resistant Escherichia coli JW5503 harboring GyrA Ser97Pro mutant after 16 to 18 hrs by broth microdilution method; assay type: functional
# Escherichia coli [10] = assay: Antibacterial activity against gyramide-resistant Escherichia coli JW5503 harboring GyrA Phe96Leu mutant after 16 to 18 hrs by broth microdilution method; assay type: functional
# Escherichia coli [11] = assay: Antibacterial activity against gyramide-resistant Escherichia coli JW5503 harboring GyrA His45Tyr mutant after 16 to 18 hrs by broth microdilution method; assay type: functional
# Escherichia coli [12] = assay: Antibacterial activity against gyramide-resistant Escherichia coli JW5503 harboring GyrB Thr508Met mutant after 16 to 18 hrs by broth microdilution method; assay type: functional
# Escherichia coli [13] = assay: Antibacterial activity against ciprofloxacin-resistant Escherichia coli JW5503 harboring GyrA Ser83Leu mutant after 16 to 18 hrs by broth microdilution method; assay type: functional
# Escherichia coli [14] = assay: Antibacterial activity against ciprofloxacin-resistant Escherichia coli JW5503 harboring GyrA Asp87Gly mutant after 16 to 18 hrs by broth microdilution method; assay type: functional
# Escherichia coli [15] = assay: Antibacterial activity against ciprofloxacin-resistant Escherichia coli JW5503 harboring GyrA Asp87Tyr mutant after 16 to 18 hrs by broth microdilution method; assay type: functional
# Escherichia coli [16] = assay: Antibacterial activity against Escherichia coli HB101 after 16 to 18 hrs by broth microdilution method; assay type: functional
# Escherichia coli [17] = assay: Antibacterial activity against Escherichia coli HB101 after 16 to 18 hrs in presence of PAbetaN by broth microdilution method; assay type: functional
# [18] = Ratio of MIC for Escherichia coli BW25113 to MIC for Escherichia coli JW5503; assay type: functional
# Escherichia coli [19] = assay: Ratio of MIC for Escherichia coli MC4100 to MIC for Escherichia coli BAS849; assay type: functional
# Escherichia coli [20] = assay: Ratio of MIC for gyramide-resistant Escherichia coli JW5503 harboring GyrA Pro35Thr mutant to MIC for Escherichia coli JW5503; assay type: functional
# Escherichia coli [21] = assay: Ratio of MIC for gyramide-resistant Escherichia coli JW5503 harboring GyrA Ser97Pro mutant to MIC for Escherichia coli JW5503; assay type: functional
# Escherichia coli [22] = assay: Ratio of MIC for gyramide-resistant Escherichia coli JW5503 harboring GyrA Phe96Leu mutant to MIC for Escherichia coli JW5503; assay type: functional
# Escherichia coli [23] = assay: Ratio of MIC for gyramide-resistant Escherichia coli JW5503 harboring GyrA His45Tyr mutant to MIC for Escherichia coli JW5503; assay type: functional
# Escherichia coli [24] = assay: Ratio of MIC for gyramide-resistant Escherichia coli JW5503 harboring GyrB Ser464Phe mutant to MIC for Escherichia coli JW5503; assay type: functional
# Escherichia coli [25] = assay: Ratio of MIC for ciprofloxacin-resistant Escherichia coli JW5503 harboring GyrA Asp87Tyr mutant to MIC for Escherichia coli JW5503; assay type: functional
# Escherichia coli [26] = assay: Ratio of MIC for ciprofloxacin-resistant Escherichia coli JW5503 harboring GyrA Ser83Leu mutant to MIC for Escherichia coli JW5503; assay type: functional
# Escherichia coli [27] = assay: Ratio of MIC for ciprofloxacin-resistant Escherichia coli JW5503 harboring GyrA Asp87Gly mutant to MIC for Escherichia coli JW5503; assay type: functional
# Escherichia coli [28] = assay: Ratio of MIC for ciprofloxacin-resistant Escherichia coli JW5503 harboring GyrB Ser464Phe mutant to MIC for Escherichia coli JW5503; assay type: functional
# Escherichia coli [29] = assay: Ratio of MIC for novobiocin-resistant Escherichia coli CC5 harboring GyrB Arg136His mutant to MIC for Escherichia coli HB101; assay type: functional
# Escherichia coli [30] = assay: Ratio of MIC for novobiocin-resistant Escherichia coli LE316 harboring GyrB Arg136Val mutant to MIC for Escherichia coli HB101; assay type: functional
# Escherichia coli [31] = assay: Ratio of MIC for novobiocin-resistant Escherichia coli CC7 harboring GyrB Arg136Ser mutant to MIC for Escherichia coli HB101; assay type: functional
# DNA gyrase = DNA gyrase (Escherichia coli, UniProt P0AES4+P0AES6); assay: Inhibition of Escherichia coli DNA gyrase assessed as inhibition of pUC19 supercoiling after 30 mins by agarose gel electrophoresis; assay type: protein-complex assay
# [32] = molecular target: DNA gyrase (Escherichia coli) (UniProt P0AES6+P0AES4); assay: Inhibition of Escherichia coli DNA gyrase ATPase activity up to 100 uM using DNA as substrate after 60 mins; assay type: protein-complex assay
# Escherichia coli [33] = assay: Antibacterial activity against Escherichia coli JW5503 transfected with empty vector in absence of IPTG induction after 16 hrs by broth microdilution method; assay type: functional; conditions: JW5503, 16 h
# Escherichia coli [34] = assay: Antibacterial activity against Escherichia coli JW5503 overexpressing gyrA in presence of IPTG induction after 16 hrs by broth microdilution method; assay type: functional; conditions: JW5503, 16 h
# Escherichia coli [35] = assay: Antibacterial activity against Escherichia coli JW5503 overexpressing gyrA in absence of IPTG induction after 16 hrs by broth microdilution method; assay type: functional; conditions: JW5503, 16 h
# Escherichia coli [36] = assay: Antibacterial activity against Escherichia coli JW5503 overexpressing gyrB in presence of IPTG induction after 16 hrs by broth microdilution method; assay type: functional; conditions: JW5503, 16 h
# Escherichia coli [37] = assay: Antibacterial activity against Escherichia coli JW5503 overexpressing gyrA/gyrB in presence of IPTG induction after 16 hrs by broth microdilution method; assay type: functional; conditions: JW5503, 16 h
# Escherichia coli [38] = assay: Antibacterial activity against Escherichia coli JW5503 overexpressing gyrA/gyrB in absence of IPTG induction after 16 hrs by broth microdilution method; assay type: functional; conditions: JW5503, 16 h
# Escherichia coli [39] = assay: Antibacterial activity against Escherichia coli JW5503 simultaneously overexpressing gyrA/gyrB in presence of IPTG induction after 16 hrs by broth microdilution method; assay type: functional, organism-based
structure (smiles),measurement,setting,value
N#Cc1cccc(S(=O)(=O)N[C@@H]2CCN(Cc3ccc(-c4ccccc4)cc3)C2)c1,MIC,Escherichia coli [1],16 µg/mL
same,MIC,Escherichia coli [2],0.1 µg/mL
same,MIC,Escherichia coli [3],8 µg/mL
same,MIC,Escherichia coli [4],1 µg/mL
same,MIC,Escherichia coli [5],16 µg/mL
same,MIC,Acinetobacter baumannii,> 16 µg/mL
same,MIC,Edwardsiella tarda,16 µg/mL
same,MIC,Klebsiella aerogenes,> 16 µg/mL
same,MIC,Klebsiella pneumoniae,> 16 µg/mL
same,MIC,Morganella morganii,> 16 µg/mL
same,MIC,Pseudomonas aeruginosa,> 16 µg/mL
same,MIC,Salmonella typhimurium,2 µg/mL
same,MIC,Shigella flexneri,8 µg/mL
same,MIC,Bacillus subtilis,> 16 µg/mL
same,MIC,Bacillus cereus,> 16 µg/mL
same,MIC,Enterococcus faecalis,> 16 µg/mL
same,MIC,Enterococcus faecium,> 16 µg/mL
same,MIC,Staphylococcus aureus,> 16 µg/mL
same,MIC,[6],> 16 µg/mL
same,MIC,[7],> 16 µg/mL
same,MIC,Streptococcus agalactiae,> 16 µg/mL
same,MIC,Streptococcus pyogenes,> 16 µg/mL
same,MIC,Escherichia coli [8],10 µg/mL
same,MIC,Escherichia coli [9],> 10 µg/mL
same,MIC,Escherichia coli [10],10 µg/mL
same,MIC,Escherichia coli [11],10 µg/mL
same,MIC,Escherichia coli [12],10 µg/mL
same,MIC,Escherichia coli [13],0.2 µg/mL
same,MIC,Escherichia coli [14],0.4 µg/mL
same,MIC,Escherichia coli [15],0.4 µg/mL
same,MIC,Escherichia coli [16],> 16 µg/mL
same,MIC,Escherichia coli [17],0.1 µg/mL
same,Ratio,[18],160
same,Ratio,Escherichia coli [19],8
same,Ratio,Escherichia coli [20],10 - 100
same,Ratio,Escherichia coli [21],10 - 100
same,Ratio,Escherichia coli [22],10 - 100
same,Ratio,Escherichia coli [23],10 - 100
same,Ratio,Escherichia coli [24],10 - 100
same,Ratio,Escherichia coli [25],2 - 4
same,Ratio,Escherichia coli [26],2 - 4
same,Ratio,Escherichia coli [27],2 - 4
same,Ratio,Escherichia coli [28],2 - 4
same,Ratio,Escherichia coli [29],2 - 4
same,Ratio,Escherichia coli [30],2 - 4
same,Ratio,Escherichia coli [31],2 - 4
same,IC50,DNA gyrase,52 nM
same,inhibition,[32],inactive
same,MIC,Escherichia coli [33],0.2 µg/mL
same,MIC,Escherichia coli [34],0.1 µg/mL
same,MIC,Escherichia coli [35],0.2 µg/mL
same,MIC,Escherichia coli [36],0.1 µg/mL
same,MIC,Escherichia coli [37],0.1 µg/mL
same,MIC,Escherichia coli [38],0.2 µg/mL
same,Activity,Escherichia coli [39],Active
